# Patent publication US11053204B2, “Pyrimidinyloxy benzene derivatives as herbicides” (FMC Corporation, priority 2015, dated 2021)
# Experiments:
# Type in all cases: in vivo
# [1] = test system: galium (catchweed bedstraw, Galium aparine); experiment: Test C preemergence, plant response rating
# [2] = test system: johnsongrass (Sorghum halepense); experiment: Test C preemergence, plant response rating
# [3] = test system: pigweed, palmer (palmer pigweed, Amaranthus palmeri); experiment: Test C preemergence, plant response rating
# [4] = test system: surinam grass (Brachiaria decumbens); experiment: Test C preemergence, plant response rating
# [5] = test system: wild poinsettia (Euphorbia heterophylla); experiment: Test C preemergence, plant response rating
# [6] = test system: windgrass (Apera spica-venti); experiment: Test C preemergence, plant response rating
# [7] = test system: oat, wild (wild oat Avena fatua); experiment: Test C preemergence, plant response rating
# [8] = test system: Canada thistle (Cirsium arvense); experiment: Test C postemergence, plant response rating; settings: for Canada Thistle plant response rating: scale 0 to 100 (0 no effect, 100 complete control)
# Summary of the method: (§1)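 Pre-emergence: seeds sown in loam soil–sand blend or silt loam and sprayed with test chemicals in a non-phytotoxic solvent mixture with surfactant. Post-emergence: plants 2 to 18 cm (1- to 4-leaf stage) in peat-based potting medium, same formulation. Greenhouse 13 to 15 d; visual rating 0 (no effect) to 100 (complete control) versus controls.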
# [9] = test system: buckwheat, wild (wild buckwheat, Polygonum convolvulus); experiment: Test C postemergence, plant response rating; settings: for Buckwheat, Wild plant response rating: scale 0 to 100 (0 no effect, 100 complete control)
# Summary of the method: as §1
# [10] = test system: field poppy (Papaver rhoeas); experiment: Test C postemergence, plant response rating; settings: for Field Poppy plant response rating: scale 0 to 100 (0 no effect, 100 complete control)
# Summary of the method: as §1
# [11] = test system: field violet (Viola arvensis); experiment: Test C postemergence, plant response rating; settings: for Field Violet plant response rating: scale 0 to 100 (0 no effect, 100 complete control)
# Summary of the method: as §1
# [12] = test system: geranium, cutleaf (cutleaf geranium, Geranium dissectum); experiment: Test C postemergence, plant response rating; settings: for Geranium, Cutleaf plant response rating: scale 0 to 100 (0 no effect, 100 complete control)
# Summary of the method: as §1
# [13] = test system: nightshade (eastern black nightshade, Solanum ptycanthum); experiment: Test C postemergence, plant response rating; settings: for Nightshade plant response rating: scale 0 to 100 (0 no effect, 100 complete control)
# Summary of the method: as §1
# [14] = test system: pigweed, palmer (palmer pigweed, Amaranthus palmeri); experiment: Test C postemergence, plant response rating; settings: for Pigweed, Palmer plant response rating: scale 0 to 100 (0 no effect, 100 complete control)
# Summary of the method: as §1
# [15] = test system: speedwell (bird's-eye speedwell, Veronica persica); experiment: Test C postemergence, plant response rating; settings: for Speedwell plant response rating: scale 0 to 100 (0 no effect, 100 complete control)
# Summary of the method: as §1
# [16] = test system: wild mustard (Sinapis arvensis); experiment: Test C postemergence, plant response rating; settings: for Mustard, Wild plant response rating: scale 0 to 100 (0 no effect, 100 complete control)
# Summary of the method: as §1
# [17] = test system: windgrass (Apera spica-venti); experiment: Test C postemergence, plant response rating; settings: for Windgrass plant response rating: 125 g ai/ha, scale 0 to 100 (0 no effect, 100 complete control)
# Summary of the method: as §1
smiles,measurement,setting,value
O=C(CCCC(F)(F)F)c1c(Oc2ncc(Cl)cn2)cccc1C(F)(F)F [Compound 125],"Plant response rating, Galium","[1]; 31 g ai/ha, scale 0 to 100",5
same,"Plant response rating, Galium","[1]; 62 g ai/ha, scale 0 to 100",30
same,"Plant response rating, Galium","[1]; 125 g ai/ha, scale of 0 to 100",80
same,"Plant response rating, Johnsongrass","[2]; 31 g ai/ha, scale 0 to 100",5
same,"Plant response rating, Johnsongrass","[2]; 62 g ai/ha, scale 0 to 100",60
same,"Plant response rating, Johnsongrass","[2]; 125 g ai/ha, scale of 0 to 100",75
same,"Plant response rating, Pigweed, Palmer","[3]; 31 g ai/ha, scale 0 to 100",100
same,"Plant response rating, Pigweed, Palmer","[3]; 62 g ai/ha, scale 0 to 100",100
same,"Plant response rating, Pigweed, Palmer","[3]; 125 g ai/ha, scale of 0 to 100",100
same,"Plant response rating, Surinam Grass","[4]; 31 g ai/ha, scale 0 to 100",20
same,"Plant response rating, Surinam Grass","[4]; 62 g ai/ha, scale 0 to 100",40
same,"Plant response rating, Surinam Grass","[4]; 125 g ai/ha, scale of 0 to 100",65
same,"Plant response rating, Poinsettia, Wild","[5]; 31 g ai/ha, scale 0 to 100",0
same,"Plant response rating, Poinsettia, Wild","[5]; 62 g ai/ha, scale 0 to 100",25
same,"Plant response rating, Poinsettia, Wild","[5]; 125 g ai/ha, scale of 0 to 100",30
same,"Plant response rating, Windgrass","[6]; 31 g ai/ha, scale 0 to 100",85
same,"Plant response rating, Windgrass","[6]; 62 g ai/ha, scale 0 to 100",90
same,"Plant response rating, Windgrass","[6]; 125 g ai/ha, scale of 0 to 100",100
same,"Plant response rating, Oat, Wild","[7]; 31 g ai/ha, scale 0 to 100",0
same,"Plant response rating, Oat, Wild","[7]; 62 g ai/ha, scale 0 to 100",10
same,"Plant response rating, Oat, Wild","[7]; 125 g ai/ha, scale of 0 to 100",55
same,"Plant response rating, Canada Thistle","[8]; 16 g ai/ha, scale of 0 to 100",80
same,"Plant response rating, Canada Thistle","[8]; 31 g ai/ha, scale 0 to 100",85
same,Canada Thistle plant response rating,[8]; 62 g ai/ha,90
same,Canada Thistle plant response rating,[8]; 125 g ai/ha,90
same,"Plant response rating, Buckwheat, Wild","[9]; 16 g ai/ha, scale of 0 to 100",70
same,"Plant response rating, Buckwheat, Wild","[9]; 31 g ai/ha, scale 0 to 100",65
same,"Buckwheat, Wild plant response rating",[9]; 62 g ai/ha,75
same,"Buckwheat, Wild plant response rating",[9]; 125 g ai/ha,98
same,"Plant response rating, Field Poppy","[10]; 16 g ai/ha, scale of 0 to 100",90
same,"Plant response rating, Field Poppy","[10]; 31 g ai/ha, scale 0 to 100",95
same,Field Poppy plant response rating,[10]; 62 g ai/ha,100
same,Field Poppy plant response rating,[10]; 125 g ai/ha,100
same,"Plant response rating, Field Violet","[11]; 16 g ai/ha, scale of 0 to 100",90
same,"Plant response rating, Field Violet","[11]; 31 g ai/ha, scale 0 to 100",98
same,Field Violet plant response rating,[11]; 62 g ai/ha,98
same,Field Violet plant response rating,[11]; 125 g ai/ha,98
same,"Plant response rating, Geranium, Cutleaf","[12]; 16 g ai/ha, scale of 0 to 100",25
same,"Plant response rating, Geranium, Cutleaf","[12]; 31 g ai/ha, scale 0 to 100",30
same,"Geranium, Cutleaf plant response rating",[12]; 62 g ai/ha,55
same,"Geranium, Cutleaf plant response rating",[12]; 125 g ai/ha,55
same,"Plant response rating, Nightshade","[13]; 16 g ai/ha, scale of 0 to 100",50
same,"Plant response rating, Nightshade","[13]; 31 g ai/ha, scale 0 to 100",75
same,Nightshade plant response rating,[13]; 62 g ai/ha,85
same,Nightshade plant response rating,[13]; 125 g ai/ha,90
same,"Plant response rating, Pigweed, Palmer","[14]; 16 g ai/ha, scale of 0 to 100",40
same,"Plant response rating, Pigweed, Palmer","[14]; 31 g ai/ha, scale 0 to 100",85
same,"Pigweed, Palmer plant response rating",[14]; 62 g ai/ha,80
same,"Pigweed, Palmer plant response rating",[14]; 125 g ai/ha,85
same,"Plant response rating, Speedwell","[15]; 16 g ai/ha, scale of 0 to 100",55
same,"Plant response rating, Speedwell","[15]; 31 g ai/ha, scale 0 to 100",70
same,Speedwell plant response rating,[15]; 62 g ai/ha,98
same,Speedwell plant response rating,[15]; 125 g ai/ha,98
same,"Plant response rating, Mustard, Wild","[16]; 16 g ai/ha, scale of 0 to 100",90
same,"Plant response rating, Mustard, Wild","[16]; 31 g ai/ha, scale 0 to 100",95
same,"Mustard, Wild plant response rating",[16]; 62 g ai/ha,98
same,"Mustard, Wild plant response rating",[16]; 125 g ai/ha,100
same,"Plant response rating, Windgrass","[17]; 16 g ai/ha, scale of 0 to 100",10
same,"Plant response rating, Windgrass","[17]; 31 g ai/ha, scale 0 to 100",15
same,Windgrass plant response rating,[17],35
FC(F)(F)CCCCc1c(Cl)cccc1Oc1ncc(Cl)cn1 [Compound 137],"Plant response rating, Canada Thistle","[8]; 16 g ai/ha, scale of 0 to 100",75
same,"Plant response rating, Canada Thistle","[8]; 31 g ai/ha, scale 0 to 100",85
same,Canada Thistle plant response rating,[8]; 62 g ai/ha,98
same,Canada Thistle plant response rating,[8]; 125 g ai/ha,100
same,"Plant response rating, Buckwheat, Wild","[9]; 16 g ai/ha, scale of 0 to 100",70
same,"Plant response rating, Buckwheat, Wild","[9]; 31 g ai/ha, scale 0 to 100",75
same,"Buckwheat, Wild plant response rating",[9]; 62 g ai/ha,98
same,"Buckwheat, Wild plant response rating",[9]; 125 g ai/ha,90
same,"Plant response rating, Field Poppy","[10]; 16 g ai/ha, scale of 0 to 100",85
same,"Plant response rating, Field Poppy","[10]; 31 g ai/ha, scale 0 to 100",95
same,Field Poppy plant response rating,[10]; 62 g ai/ha,100
same,Field Poppy plant response rating,[10]; 125 g ai/ha,100
same,"Plant response rating, Field Violet","[11]; 16 g ai/ha, scale of 0 to 100",65
same,"Plant response rating, Field Violet","[11]; 31 g ai/ha, scale 0 to 100",70
same,Field Violet plant response rating,[11]; 62 g ai/ha,85
same,Field Violet plant response rating,[11]; 125 g ai/ha,85
same,"Plant response rating, Geranium, Cutleaf","[12]; 16 g ai/ha, scale of 0 to 100",10
same,"Plant response rating, Geranium, Cutleaf","[12]; 31 g ai/ha, scale 0 to 100",25
same,"Geranium, Cutleaf plant response rating",[12]; 62 g ai/ha,30
same,"Geranium, Cutleaf plant response rating",[12]; 125 g ai/ha,35
same,"Plant response rating, Nightshade","[13]; 16 g ai/ha, scale of 0 to 100",60
same,"Plant response rating, Nightshade","[13]; 31 g ai/ha, scale 0 to 100",80
same,Nightshade plant response rating,[13]; 62 g ai/ha,90
same,Nightshade plant response rating,[13]; 125 g ai/ha,90
same,"Plant response rating, Pigweed, Palmer","[14]; 16 g ai/ha, scale of 0 to 100",20
same,"Plant response rating, Pigweed, Palmer","[14]; 31 g ai/ha, scale 0 to 100",45
same,"Pigweed, Palmer plant response rating",[14]; 62 g ai/ha,50
same,"Pigweed, Palmer plant response rating",[14]; 125 g ai/ha,70
same,"Plant response rating, Speedwell","[15]; 16 g ai/ha, scale of 0 to 100",75
same,"Plant response rating, Speedwell","[15]; 31 g ai/ha, scale 0 to 100",80
same,Speedwell plant response rating,[15]; 62 g ai/ha,100
same,Speedwell plant response rating,[15]; 125 g ai/ha,100
same,"Plant response rating, Mustard, Wild","[16]; 16 g ai/ha, scale of 0 to 100",100
same,"Plant response rating, Mustard, Wild","[16]; 31 g ai/ha, scale 0 to 100",85
same,"Mustard, Wild plant response rating",[16]; 62 g ai/ha,100
same,"Mustard, Wild plant response rating",[16]; 125 g ai/ha,100
same,"Plant response rating, Windgrass","[17]; 16 g ai/ha, scale of 0 to 100",10
same,"Plant response rating, Windgrass","[17]; 31 g ai/ha, scale 0 to 100",10
same,Windgrass plant response rating,[17],45
